Assay results as given in US10092575B2, “Substituted thiophene- and furan-fused azolopyrimidine-5-(6H)-one compounds” (DART NEUROSCIENCE (CAYMAN) LTD., priority 2012, dated 2018).

What follows are compounds tested against human PDE1b enzyme (Homo sapiens (Human), UniProt Q01064) (assay: PDE1b inhibitory assay (IMAP TR-FRET)). Details: not given.

Row | Structure (SMILES) | EC50 [nM]
1 | COc1ccc(Cn2c(=O)n3ncnc3c3c(C)c(CN4C[C@@H](C)N[C@@H](C)C4)sc32)cc1 [Example 72, 8-(((3R,5S)-3,5-Dimethylpiperazin-1-yl)methyl)-6-(4-methoxybenzyl)-9-methylthieno[3,2-e][1,2,4]triazolo[1,5-c]pyrimidin-5(6H)-one] | 100 to 1000
2 | COc1ccc(Cn2c(=O)n3ncnc3c3c(C)c(Br)sc32)cc1 [Example 76, 8-Bromo-6-(4-methoxybenzyl)-9-methylthieno[3,2-e][1,2,4]triazolo[1,5-c]pyrimidin-5(6H)-one] | 100 to 1000
3 | COc1ccc(Cn2c(=O)n3ncnc3c3c(C)c(CO)sc32)cc1 [Example 77, 8-(Hydroxymethyl)-6-(4-methoxybenzyl)-9-methylthieno[3,2-e][1,2,4]triazolo[1,5-c]pyrimidin-5(6H)-one] | 100 to 1000
4 | COc1ccc(Cn2c(=O)n3ncnc3c3c(CN4C[C@@H](C)O[C@@H](C)C4)csc32)cc1 [Example 78, 9-(((2S,6R)-2,6-Dimethylmorpholino)methyl)-6-(4-methoxybenzyl)thieno[3,2-e][1,2,4]triazolo[1,5-c]pyrimidin-5(6H)-one] | 100 to 1000
5 | Cc1oc2c(c1C)c1ncnn1c(=O)n2Cc1ccc(Cl)cc1 [Example 79, 6-(4-Chlorobenzyl)-8,9-dimethylfuro[3,2-e][1,2,4]triazolo[1,5-c]pyrimidin-5(6H)-one] | 100 to 1000
6 | O=c1n(Cc2ccccc2Cl)c2sc3c(c2c2ncnn12)CCCC3 [Example 81, 6-(2-Chlorobenzyl)-8,9,10,11-tetrahydrobenzo[4,5]thieno[3,2-e][1,2,4]triazolo[1,5-c]pyrimidin-5(6H)-one] | 1000 to 10000
7 | COc1ccc(Cn2c(=O)n3nccc3c3cc(CN4CCOCC4)sc32)cc1 [Example 82, 4-(4-Methoxybenzyl)-2-(morpholinomethyl)pyrazolo[1,5-c]thieno[3,2-e]pyrimidin-5(4H)-one] | 100 to 1000
8 | CC1(C)Cc2c(sc3c2c2ncnn2c(=O)n3Cc2ccc(Cl)cc2)CO1 [Example 83, 6-(4-Chlorobenzyl)-10,10-dimethyl-6,8,10,11-tetrahydro-5H-pyrano[4′,3′:4,5]thieno[3,2-e][1,2,4]triazolo[1,5-c]pyrimidin-5-one] | 100 to 1000
9 | O=c1n(Cc2ccccc2)c2sc3c(c2c2ncnn12)CCCC3 [Example 84, 6-Benzyl-8,9,10,11-tetrahydrobenzo[4,5]thieno[3,2-e][1,2,4]triazolo[1,5-c]pyrimidin-5(6H)-one] | 100 to 1000
10 | O=c1n(Cc2cccc(Cl)c2)c2sc3c(c2c2ncnn12)CCCC3 [Example 85, 6-(3-Chlorobenzyl)-8,9,10,11-tetrahydrobenzo[4,5]thieno[3,2-e][1,2,4]triazolo[1,5-c]pyrimidin-5(6H)-one] | 100 to 1000
11 | O=c1n(Cc2ccc(-c3ccccc3)cc2)c2sc3c(c2c2ncnn12)CCCC3 [Example 86, 6-([1,1′-Biphenyl]-4-ylmethyl)-8,9,10,11-tetrahydrobenzo[4,5]thieno[3,2-e][1,2,4]triazolo[1,5-c]pyrimidin-5(6H)-one] | 1000 to 10000
12 | O=c1n(Cc2ccc(Cl)cc2)c2sc3c(c2c2ncnn12)CCOC3 [Example 87, 6-(4-Chlorobenzyl)-6,8,10,11-tetrahydro-5H-pyrano[4′,3′:4,5]thieno[3,2-e][1,2,4]triazolo[1,5-c]pyrimidin-5-one] | 100 to 1000
13 | Cc1ccc(Cn2c(=O)n3ncnc3c3c4c(sc32)COCC4)cc1 [Example 88, 6-(4-Methylbenzyl)-6,8,10,11-tetrahydro-5H-pyrano[4′,3′:4,5]thieno[3,2-e][1,2,4]triazolo[1,5-c]pyrimidin-5-one] | 100 to 1000
14 | O=c1n(Cc2ccc(C(F)(F)F)cc2)c2sc3c(c2c2ncnn12)CCOC3 [Example 89, 6-(4-(Trifluoromethyl)benzyl)-6,8,10,11-tetrahydro-5H-pyrano[4′,3′:4,5]thieno[3,2-e][1,2,4]triazolo[1,5-c]pyrimidin-5-one] | 1000 to 10000

Same assay, conditions: negative log of half-maximal molar inhibitory concentration; 200 nM FAM-cAMP; reported as ranges

Row | Structure (SMILES) | PDE1b (pEC50)
15 | COc1ccc(Cn2c(=O)n3ncnc3c3c(C)c(CN4C[C@@H](C)O[C@@H](C)C4)sc32)cc1 [Example 55, 8-(((2S,6R)-2,6-Dimethylmorpholino)methyl)-6-(4-methoxybenzyl)-9-methylthieno[3,2-e][1,2,4]triazolo[1,5-c]pyrimidin-5(6H)-one] | >7
16 | COc1ccc(Cn2c(=O)n3ncnc3c3c(C)c(CN4Cc5ccccc5C4)sc32)cc1 [Example 56, 8-(Isoindolin-2-ylmethyl)-6-(4-methoxybenzyl)-9-methylthieno[3,2-e][1,2,4]triazolo[1,5-c]pyrimidin-5(6H)-one] | >7
17 | COc1ccc(Cn2c(=O)n3ncnc3c3c(C)c(CNC4CC4)sc32)cc1 [Example 57, 8-((Cyclopropylamino)methyl)-6-(4-methoxybenzyl)-9-methylthieno[3,2-e][1,2,4]triazolo[1,5-c]pyrimidin-5(6H)-one] | >7
18 | COC[C@@H]1CCCN1Cc1sc2c(c1C)c1ncnn1c(=O)n2Cc1ccc(OC)cc1 [Example 58, (S)-6-(4-Methoxybenzyl)-8-((2-(methoxymethyl)pyrrolidin-1-yl)methyl)-9-methylthieno[3,2-e][1,2,4]triazolo[1,5-c]pyrimidin-5(6H)-one] | >7
19 | COc1ccc(Cn2c(=O)n3ncnc3c3c(C)c(CN(C)CC4CCOC4)sc32)cc1 (stereo not shown) [Example 59, 6-(4-Methoxybenzyl)-9-methyl-8-((methyl((tetrahydrofuran-3-yl)methyl)amino)methyl)thieno[3,2-e][1,2,4]triazolo[1,5-c]pyrimidin-5(6H)-one] | >7
20 | COc1ccc(Cn2c(=O)n3ncnc3c3c(C)c(CN4CCCOCC4)sc32)cc1 [Example 61, 8-((1,4-Oxazepan-4-yl)methyl)-6-(4-methoxybenzyl)-9-methylthieno[3,2-e][1,2,4]triazolo[1,5-c]pyrimidin-5(6H)-one] | >7
21 | COc1ccc(Cn2c(=O)n3ncnc3c3c(C)c(CN4CCN(S(C)(=O)=O)CC4)sc32)cc1 [Example 63, 6-(4-Methoxybenzyl)-9-methyl-8-((4-(methylsulfonyl)piperazin-1-yl)methyl)thieno[3,2-e][1,2,4]triazolo[1,5-c]pyrimidin-5(6H)-one] | >7
22 | COc1ccc(Cn2c(=O)n3ncnc3c3c(C)c(CN4CCN(C(C)C)CC4)sc32)cc1 [Example 64, 8-((4-Isopropylpiperazin-1-yl)methyl)-6-(4-methoxybenzyl)-9-methylthieno[3,2-e][1,2,4]triazolo[1,5-c]pyrimidin-5(6H)-one] | >7
23 | COc1ccc(Cn2c(=O)n3ncnc3c3c(C)c(CN4CC5CC4CO5)sc32)cc1 (stereo not shown) [Example 65, 8-(2-Oxa-5-azabicyclo[2.2.1]heptan-5-ylmethyl)-6-(4-methoxybenzyl)-9-methylthieno[3,2-e][1,2,4]triazolo[1,5-c]pyrimidin-5(6H)-one] | >7
24 | CCN1CCN(Cc2sc3c(c2C)c2ncnn2c(=O)n3Cc2ccc(OC)cc2)CC1=O [Example 66, 8-((4-Ethyl-3-oxopiperazin-1-yl)methyl)-6-(4-methoxybenzyl)-9-methylthieno[3,2-e][1,2,4]triazolo[1,5-c]pyrimidin-5(6H)-one] | >7
25 | COc1ccc(Cn2c(=O)n3ncnc3c3c(C)c(CN4CC5CCC(C4)O5)sc32)cc1 [Example 67, 8-(8-Oxa-3-azabicyclo[3.2.1]octan-3-ylmethyl)-6-(4-methoxybenzyl)-9-methylthieno[3,2-e][1,2,4]triazolo[1,5-c]pyrimidin-5(6H)-one] | >7
26 | CCC1CN(Cc2sc3c(c2C)c2ncnn2c(=O)n3Cc2ccc(OC)cc2)CCO1 (stereo not shown) [Example 68, 8-((2-Ethylmorpholino)methyl)-6-(4-methoxybenzyl)-9-methylthieno[3,2-e][1,2,4]triazolo[1,5-c]pyrimidin-5(6H)-one] | >7
27 | COc1ccc(Cn2c(=O)n3ncnc3c3c(C)c(CN4CCOC(C)(C)C4)sc32)cc1 [Example 69, 8-((2,2-Dimethylmorpholino)methyl)-6-(4-methoxybenzyl)-9-methylthieno[3,2-e][1,2,4]triazolo[1,5-c]pyrimidin-5(6H)-one] | >7
28 | COc1ccc(Cn2c(=O)n3ncnc3c3c(C)c(CN4CCOC(C)C4)sc32)cc1 (stereo not shown) [Example 70, 6-(4-Methoxybenzyl)-9-methyl-8-((2-methylmorpholino)methyl)thieno[3,2-e][1,2,4]triazolo[1,5-c]pyrimidin-5(6H)-one] | >7
29 | COc1ccc(Cn2c(=O)n3ncnc3c3c(C)c(CN4CCOCC4C)sc32)cc1 (stereo not shown) [Example 71, 6-(4-Methoxybenzyl)-9-methyl-8-((3-methylmorpholino)methyl)thieno[3,2-e][1,2,4]triazolo[1,5-c]pyrimidin-5(6H)-one] | >7
30 | COc1ccc(Cn2c(=O)n3ncnc3c3c(C)c(CN4CCN(C)C(C)C4)sc32)cc1 (stereo not shown) [Example 73, 8-((3,4-Dimethylpiperazin-1-yl)methyl)-6-(4-methoxybenzyl)-9-methylthieno[3,2-e][1,2,4]triazolo[1,5-c]pyrimidin-5(6H)-one] | >7
31 | COc1ccc(Cn2c(=O)n3ncnc3c3c(C)c(CN4CCN(C)C(C)(C)C4)sc32)cc1 [Example 74, 6-(4-Methoxybenzyl)-9-methyl-8-((3,3,4-trimethylpiperazin-1-yl)methyl)thieno[3,2-e][1,2,4]triazolo[1,5-c]pyrimidin-5(6H)-one] | >7
32 | COc1ccc(Cn2c(=O)n3ncnc3c3c(C)c(CN4CCN5CCC[C@H]5C4)sc32)cc1 [Example 75, (S)-8-((Hexahydropyrrolo[1,2-a]pyrazin-2(1H)-yl)methyl)-6-(4-methoxybenzyl)-9-methylthieno[3,2-e][1,2,4]triazolo[1,5-c]pyrimidin-5(6H)-one] | >7
33 | COc1ccc(Cn2c(=O)n3ncnc3c3c4c(sc32)CN(C(=O)OC(C)(C)C)CC4)cc1 [Example 80, tert-Butyl 6-(4-methoxybenzyl)-5-oxo-5,6,10,11-tetrahydropyrido[4′,3′:4,5]thieno[3,2-e][1,2,4]triazolo[1,5-c]pyrimidine-9(8H)-carboxylate] | >7
34 | COc1ccc(Cn2c(=O)n3ncnc3c3c4c(sc32)COCC4)cc1 [Example 90, 6-(4-Methoxybenzyl)-6,8,10,11-tetrahydro-5H-pyrano[4′,3′:4,5]thieno[3,2-e][1,2,4]triazolo[1,5-c]pyrimidin-5-one] | >7
